Where no end group is shown, it is not given here.
Key:
[1] = tested on: PHB2/REA (Ser39) phosphorylation; assay: Okadaic acid treatment, immunoblotting of PHB2/REA phosphorylation, MCF-7; assay type: cell-based, human
Method: FIG. 31-2 is a diagram illustrating that phosphorylation of ERAP1 by PKA and PKB regulates phosphorylation of PHB2/REA (S39) through the PP1α activity. […] (S39) is caused. MCF-7 cells suppressed for expression of PKA by siRNA method, were stimulated with 10 nM E2 for 24 hours. In addition, MCF-7 cells were treated with H-89 for 30 minutes and washed with PBS. Then, immediately, the cells were stimulated with 10 nM E2 for 24 hours. […] Then, immediately, the cells were stimulated with 10 nM E2 for 24 hours. […] MCF-7 cells suppressed for expression of PKCα by siRNA method were treated with 10 μM ERAP1 peptide. Then, immediately, the cells were stimulated with 10 nM E2 for 24 hours. The cells were fractionated into cytoplasm and nuclear fractions by specific gravity centrifugation.

[2] = target: T1, binding of Flag-ERAP1 and His-PHB2/REA (Homo sapiens, UniProt Q99623); assay: Ni-resin pull-down and Western of His-PHB2/REA with Flag-ERAP1 cell lysate; conditions: pull-down, each concentration
T1 construct: human PHB2 (residues 77-244); thioredoxin (TrxA) (N); TEV protease cut site (N); made in house; host or cells: PHB2: Escherichia coli BL21 star (DE3); Flag-ERAP1: lysate of transiently transfected COS-7 cells
T1 sequence (Q99623 77-244): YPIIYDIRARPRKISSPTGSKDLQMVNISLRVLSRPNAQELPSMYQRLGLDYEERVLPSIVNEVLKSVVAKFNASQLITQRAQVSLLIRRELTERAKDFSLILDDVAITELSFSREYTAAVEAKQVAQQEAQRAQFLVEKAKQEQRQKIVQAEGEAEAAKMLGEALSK
Method: FIG. 2 is a diagram illustrating the results of immunoblotting analysis by which binding of the ERAP1-peptide to PHB2 was evaluated. The cell lysate of the COS-7 cells temporarily transfected with the Flag-tagged ERAP1 plasmid was incubated for 1 hour together with 6×His-tagged recombinant PHB2 protein (10 μg) and the ERAP1-peptide, the ERAP1-scramble peptide, or the ERAP1-mutant peptide in each concentration shown in the figure. Then, His-PHB2 was subjected to pull-down with Ni-NTA agarose (Ni-resin).
The partial sequence of human PHB2 (residues 77-244) was cloned into NcoI and XhoI sites of pTAT6 expression vector (see gift by Dr. Marko Hyvonen, University of Cambridge.: Peranen J, et al., (1996). Anal Biochem. 236, 371-373.) so as to become inframe with the hexahistidine tag, thioredoxin (TrxA) and TEV protease cut site (TEV site) at the amino terminal. The recombinant protein was expressed in Escherichia coli BL21 star (DE3) cell line (Invitrogen, Carlsbad, Calif.), and purified using Hi-Trap Kit (GE Healthcare). Finally, the recombinant protein was purified according to the protocol of the supplier using superdex 200 gel filtration column (GE Healthcare) with high performance liquid chromatography (HPLC). […]

[3] = tested on: PHB2/REA localization in MCF-7 cells; assay: Nuclear translocation of PHB2/REA (fractionation, immunoblotting, immunostaining); assay type: cell-based, human; conditions: 1 hour to 24 hours after administration
Method: FIG. 3-1 is a diagram illustrating that ERAP1-peptide treatment promotes nuclear translocation of PHB2. […] MCF-7 cells were stimulated for 24 hours with 10 μM ERAP1-peptide and/or 10 nM E2. The cells were fractioned into mitochondria, cytoplasm, and nuclear fractions by specific gravity centrifugation. Then, each fraction was subjected to immunoblotting analysis using an anti-ERAP1 antibody and an anti-PHB2 antibody. PRDX3, α/β-Tublin (Tublin) and lamin B are markers for mitochondria, cytoplasm, and nuclear fractions, respectively (upper panel). The protein content of each fraction was evaluated with Coomassie-stained SDS-PAGE gel (lower panel). […] KPL-3C cells were treated for 24 hours with 10 μM HA-tagged ERAP1-peptide and/or 10 nM E2. Then, the cells were fractionated into cytoplasm and nuclear fractions by specific gravity centrifugation. Then, which fraction was immunoprecipitated with anti-ERα antibody, an anti-ERAP1 antibody or an anti-PHB2 antibody. Then, immunoblotting was performed with each antibody shown in the figure (an anti-ERAP1 antibody, an anti-ERα antibody, an anti-PHB2 antibody and an anti-HA antibody (Peptide)). α/β-Tubulin (Tubulin) and Lamin B are markers for cytoplasm and nuclear fractions, respectively.
FIG. 4-1 is a diagram illustrating that the ERAP1-peptide promotes nuclear translocation of PHB2. (A) The upper panel illustrates representative images of stained immune cells, showing the intracellular localization of PHB2. MCF-7 cells were treated with 10 μM ERAP1-peptide or ERAP1-scramble peptide. Subsequently, the cells were treated with 10 nM E2. After the immobilization, the cells were subjected to immunofluorescent staining using an anti-PHB2 antibody and DAPI (for discriminating the nucleus).
FIG. 4-2 is a diagram illustrating that the ERAP1-peptide promotes nuclear translocation of PHB2. (B) is a diagram illustrating the results of immunoblotting analysis by which the intracellular localization of PHB2 was detected, MCF-7 cells were treated with the ERAP1-peptide or the ERAP1-scramble peptide. Subsequently immediately, the cells were treated with 10 nM E2. The cells were fractionated into cytoplasm and nuclear fractions after 1 hour or 24 hours. Each fraction was immunoprecipitated with anti-ERα antibody, an anti-ERAP1 antibody or a PH82 antibody. […]
MCF-7 cells were seeded in an 8-well chamber (Laboratory-Tek II Chamber Slide System, Nalgen Nunc International, Naperville, Ill., USA) in 5×10^4 cells/well, and cultured under estrogen-free condition for 24 hours. […] The fluorescence image was obtained under Olympus IX71 microscope (Tokyo, Japan). […]

[4] = tested on: transcriptional activity of ERα (ERE); assay: ERE-luciferase reporter assay in MCF-7 cells; assay type: cell-based, human; conditions: 10 nM E2 24 hours
Method: FIG. 3-2 is a diagram illustrating promotion effect of PHB2 nuclear translocation and suppression effect of the transcriptional activation of ER by ERAP1-peptide treatment. (C) illustrates representative images of stained immune cells, showing the localization of the ERAP1-peptide (HA-tagged ERAP1-peptide) and PHB2. MCF-7 cells were treated with 10 μM HA-tagged ERAP1-peptide for 24 hours in the presence or in the absence of 10 nM E2. After the immobilization, the cells were subjected to immunonfluorescent staining using an anti-HA antibody, an anti-PHB2 antibody and DAPI (for discriminating the nucleus). The arrow indicates the nuclear-translocated ERAP1-peptide. […] Then, immediately, the cells were stimulated with 10 nM E2 for 24 hours. TAM indicates the tamoxifen treatment.
FIG. 3-3 is as diagram illustrating the results of the luciferase assay by which the inhibition effect of the ERAP1-peptide was evaluated. MCF-7 cells temporarily transfected with an ERE-luciferase reporter vector (F) or an AP-1-luciferase reporter vector (F) were treated with the ERAP1-peptide, the scramble peptide or the mutant peptide in the concentrations shown in the […]. Then, immediately, the cells were stimulated with 10 nM E2 for 24 hours. TAM indicates the tamoxifen treatment.
FIG. 4-3 is a diagram illustrating that the ERAP1-peptide promotes nuclear translocation of PHB2. (C) and (D) are figures that show the results of the luciferase assay by which the inhibition effect of the ERAP1-peptide on the ERα transcriptional activity was evaluated. MCF-7 cells temporarily transfected with an ERE-luciferase reporter vector (C) or an AP-1-luciferase reporter vector (D) were treated with the ERAP1-peptide in the concentrations shown in the figure or 10 nM tamoxifen. Then, immediately, the cells were stimulated with 10 nM E2 thr 24 hours.
For ERE reporter assay, MCF-7 cells were transfected with ERE reporter (SABiosciences, Frederick, Md., USA) in accordance with the instruction of the manufacturer. For AP-1 reporter assay, MCF-7 cells were transfected with AP-1 reporter (mouse IL-11 promoter comprising two tandem AP-1 sites subcloned into PGL2-basic vector), c-fos, c-Jun and pRL-TK as an internal standard. After 16 hours from the transfection, the culture medium was exchanged with an assay culture medium (Opti-MEM, 10% FBS, 0.1 mM NEAA, 0.1 mM Sodium pyruvate and 10 μg/ml insulin) After 24 hours from the transfection, the cells were treated with E2 and/or the ERAP1-peptide or 24 hours. The cells were harvested, and the activities of luciferase and Renilla-luciferase were evaluated using Promega dual luciferase reporter assay (Tokyo, Japan). In consideration of the transfection efficiency, all of the data were standardized by the activity of Renilla-luciferase.

Row | Molecule | E2-dependent PHB2/REA phosphorylation (Ser39) ([1]; 20 nM of okadaic acid) | E2-dependent PHB2/REA phosphorylation (Ser39) ([1]; 40 μM) | direct binding to His-PHB2/REA [2] | inhibition of binding of Flag-ERAP1 and His-PHB2/REA [2] | nuclear translocation of PHB2/REA, temporal [3] | transcriptional activity of ERα in ERE [4]
1 | C=C1[C@@H](O)[C@@H]2O[C@]3(CC[C@H](/C=C/[C@@H](C)[C@@H]4CC(C)=C[C@@]5(O[C@H](C[C@@](C)(O)C(=O)O)CC[C@H]5O)O4)O3)CC[C@H]2O[C@@H]1[C@@H](O)C[C@H](C)[C@H]1O[C@@]2(CCCCO2)CC[C@H]1C [okadaic acid] | recognized to be recovered | confirmed to decrease |  |  |  | 
2 | ERAP1-HA-peptide: ERAP1-peptide to which HA tag was added (RRRRRRRRRRRQMLSDLTLQLRQR; also: HA tag added, place not given here) |  |  | directly bound to His-PHB2/REA, depending on the concentration | competitively inhibited | directly bound to PHB2/REA and was nuclear-translocated at the same time | suppressed the transcriptional activity of ERα

From patent US9725490B2, “ERAP1-derived peptide and use thereof” (TOKUSHIMA UNIVERSITY, priority 2011, dated 2017)
